Test [1] concerns non-small cell lung cancer cell line H460. The experiment in a line: In vitro human cancer cell line cytotoxicity (proliferation) assay in H460, CellTiter-Glo, 72 hours. The note with it: H460 cells, DMSO condition (no AKR1C3 inhibitor), read-out: CTG H460: Avg IC50 (nM) [Assay Condition: DMSO]. The format is cell-based. As to the method: Biological Example 1. In Vitro Human Cancer Cell Line Cytotoxicity Assay
IC50 values in nanomolar reported here were derived from in vitro proliferation assay data in non-small cell lung cancer cell line H460.
(§1) Specifically, exponentially growing cells were seeded at density of 3×10^3 cells per well in 96-well plate and incubated at 37° C. in 5% CO2, 95% air and 100% relative humidity for 24 hours before adding compounds. Compounds were solubilized in 100% DMSO at 10 mM. Compounds were added to the plate using Tecan D300e® digital Dispenser. After drug addition, the plates were incubated for an additional 72 hours at 37° C. in 5% CO2, 95% air and 100% relative humidity. At the end of the incubation, cell viability was quantified with CellTiter-Glo® assay.

Test [2] shares this test system. The experiment in a line: H460 proliferation assay in the presence of 3 uM ASP9521 (AKR1C3 specific inhibitor). The note with it: H460 cells, CellTiter-Glo, 72 hours, in the presence of 3 uM ASP9521 added 4 hours prior to compounds; read-out: CTG H460: Avg IC50 (nM) [Assay Condition: ASP9521]. The format is cell-based, human. As for the experimental part: as §1
To further confirm that compounds were activated by human AKR1C3, H460 proliferation assay were also performed in the presence of 3 uM […], an AKR1C3 specific inhibitor. ASP9521 were added to the plates 4 hours prior to the addition of compounds.

Where only a bound is given, the exact number is not on record here.

In the case of `Cc1ccnc(-c2ccc(Oc3c([N+](=O)[O-])ccc4c3CCC4OP(=O)(N3CC3)N3CC3)cc2)n1` (racemic) [Example 280], the IC50 is below 10 nM in test [1] and 1300 nM in test [2].

For `O=[N+]([O-])c1cc2c(cc1Oc1ccc(-c3ccc(F)cc3)cc1)C(OP(=O)(N1CC1)N1CC1)CC2` (stereo not drawn) [Example 145], the IC50 was below 10 nM in test [1] and 1120 nM in test [2].

As to `Cn1ccc2cc(Oc3c([N+](=O)[O-])ccc4c3CC[C@@H]4OP(=O)(N3CC3)N3CC3)ccc2c1=O` [Example 382], the IC50 in test [1] (Homo sapiens, NCI-H460, 72 h) was below 10 nM; in test [2], 320 nM.

As for `CC(C)c1cc(Oc2c([N+](=O)[O-])ccc3c2CCC3OP(=O)(N2CC2)N2CC2)ccc1F` (stereo not drawn) [Example 331], the values for the IC50 in test [1] and in test [2] were below 10 nM and 1050 nM, respectively.

As to `O=[N+]([O-])c1ccc2c(c1Oc1ccc(-c3ccccn3)cc1)CC[C@@H]2OP(=O)(N1CC1)N1CC1` (single isomer, unassigned) [Example 40], the IC50 was below 10 nM in test [1] (Homo sapiens, NCI-H460, 72 h) and 929 nM in test [2].

Turning to `CN(C)C(=O)c1ccc(Oc2c([N+](=O)[O-])ccc3c2CCC3OP(=O)(N2CC2)N2CC2)cc1` (single isomer, unassigned) [Example 18], the IC50 is below 10 nM in test [1] and 501 nM in test [2].

As to `O=C1OCCN1c1ccc(Oc2cc3c(cc2[N+](=O)[O-])CCC3OP(=O)(N2CC2)N2CC2)cc1` (stereo not drawn) [Example 165], the IC50 in test [1] is below 10 nM; in test [2], 89.7 nM.

With `O=[N+]([O-])c1ccc2c(c1Oc1cccc(C3CC3)c1)CCC2OP(=O)(N1CC1)N1CC1` (stereo not drawn) [Example 316], the IC50 in test [1] was below 10 nM; in test [2] it was 781 nM.

Consider `CNC(=O)c1cccc(Oc2cc3cc(C(C)OP(=O)(N4CC4)N4CC4)oc3cc2[N+](=O)[O-])c1` (stereo not drawn) [Example 539], for which the IC50 in test [1] (Homo sapiens, NCI-H460, 72 h) was below 10 nM; in test [2] it was 2730 nM.

On to `C[C@H](OP(=O)(N1CC1)N1CC1)c1cc2cc(Oc3ccc4c(c3)CN(C)C4=O)c([N+](=O)[O-])cc2o1` [Example 565], for which the IC50 in test [1] was 10 to 50 nM; in test [2] it was 5930 nM.

On to `O=[N+]([O-])c1ccc2c(c1Oc1cccc(OC(F)(F)F)c1)CCC2OP(=O)(N1CC1)N1CC1` (stereo not drawn) [Example 124], for which the IC50 in test [1] (Homo sapiens, NCI-H460, 72 h) is below 10 nM; in test [2], 547 nM.

For the compound `CN1Cc2cc(Oc3c([N+](=O)[O-])ccc4c3CCC4OP(=O)(N3CC3)N3CC3)ccc2C1=O` (single isomer, unassigned) [Example 42], the IC50 in test [1] (Homo sapiens, NCI-H460, 72 h) was below 10 nM; in test [2], 123 nM.

As for `O=C(c1cc(Oc2c([N+](=O)[O-])ccc3c2CC[C@@H]3OP(=O)(N2CC2)N2CC2)ccc1F)N1CCC1` [Example 257], the results for the IC50 in test [1] and in test [2] were below 10 nM and 1810 nM, respectively.

`O=[N+]([O-])c1ccc2c(c1Oc1ccc(-c3ncccn3)cc1)CC[C@H]2OP(=O)(N1CC1)N1CC1` [Example 284]: the IC50 in test [1] was below 10 nM; in test [2], 1150 nM.

Take `CC(OP(=O)(N1C[C@@H]1C)N1C[C@@H]1C)c1ccc([N+](=O)[O-])c(Oc2cccc(C(=O)N(C)C)c2)c1` (stereo partly drawn) [Example 211]: the IC50 in test [1] (Homo sapiens, NCI-H460, 72 h) is below 10 nM; in test [2] it was 1270 nM.

`O=C(c1cccc(Oc2c([N+](=O)[O-])ccc3c2CCC3OP(=O)(N2CC2)N2CC2)c1)N1CCC(F)(F)CC1` (stereo not drawn) [Example 104]: the values for the IC50 in test [1] and in test [2] were below 10 nM and 180 nM, respectively.

As for `O=C(NC1CC1)c1cccc(Oc2c([N+](=O)[O-])ccc3c2CCC3OP(=O)(N2CC2)N2CC2)c1` (stereo not drawn) [Example 234], the IC50 was below 10 nM in test [1] (Homo sapiens, NCI-H460, 72 h) and 865 nM in test [2].

On to `O=[N+]([O-])c1ccc2c(c1Oc1cccc(S(=O)(=O)C3CC3)c1)CC[C@H]2OP(=O)(N1CC1)N1CC1` [Example 456], for which the IC50 in test [1] was below 10 nM; in test [2], 940 nM.

In the case of `O=[N+]([O-])c1ccc2c(c1Oc1ccc(F)c(-n3cc(F)cn3)c1)CC[C@@H]2OP(=O)(N1CC1)N1CC1` [Example 421], the IC50 in test [1] (Homo sapiens, NCI-H460, 72 h) is below 10 nM; in test [2], 1400 nM.

For the compound `O=[N+]([O-])c1ccc2c(c1Oc1ccc(-c3ncc(F)cn3)c(F)c1)CC[C@@H]2OP(=O)(N1CC1)N1CC1` [Example 268, (S)-4-(3-fluoro-4-(5-fluoropyrimidin-2-yl)phenoxy)-5-nitro-2,3-dihydro-1H-inden-1-yl di(aziridin-1-yl)phosphinate], the IC50 was below 10 nM in test [1] (Homo sapiens, NCI-H460, 72 h) and 1110 nM in test [2].

On to `O=[N+]([O-])c1ccc2c(c1Oc1ccc(F)c(OCC(F)(F)F)c1)CC[C@@H]2OP(=O)(N1CC1)N1CC1` [Example 494], for which the IC50 is below 10 nM in test [1] (Homo sapiens, NCI-H460, 72 h) and 160 nM in test [2].

With `C[C@H](OP(=O)(N1CC1)N1CC1)c1cc2cc(Oc3ccc4c(c3)OC(F)(F)O4)c([N+](=O)[O-])cc2o1` [Example 551], the IC50 was below 10 nM in test [1] (Homo sapiens, NCI-H460, 72 h) and 2600 nM in test [2].

With `O=[N+]([O-])c1ccc2c(c1Oc1ccc(-c3ccc(F)cc3)cc1)CCC2OP(=O)(N1CC1)N1CC1` (stereo not drawn) [Example 22], the IC50 was 10 to 50 nM in test [1] and 1640 nM in test [2].

For the compound `Cn1ccc2cc(Oc3c([N+](=O)[O-])ccc4c3CCC4OP(=O)(N3CC3)N3CC3)ccc2c1=O` (stereo not drawn) [Example 381], the IC50 is below 10 nM in test [1] (Homo sapiens, NCI-H460, 72 h) and 312 nM in test [2].

In the case of `CC(OP(=O)(N1C[C@@H]1C)N1C[C@@H]1C)c1ccc([N+](=O)[O-])c(Oc2ccc(-c3ccc(F)cn3)c(F)c2)c1` (stereo partly drawn) [Example 221], the IC50 in test [1] (Homo sapiens, NCI-H460, 72 h) was below 10 nM; in test [2], 1210 nM.

As for `Cc1cncc(-c2ccc(Oc3c([N+](=O)[O-])ccc4c3CC[C@H]4OP(=O)(N3CC3)N3CC3)cc2)n1` [Example 285], the IC50 in test [1] was below 10 nM; in test [2] it was 754 nM.

For `CC(OP(=O)(N1C[C@@H]1C)N1C[C@@H]1C)c1ccc([N+](=O)[O-])c(Oc2ccc(C(=O)N(C)C)cc2)c1` (stereo partly drawn) [Example 213], the IC50 in test [1] (Homo sapiens, NCI-H460, 72 h) was below 10 nM; in test [2], 1200 nM.

For the compound `O=[N+]([O-])c1ccc2c(c1Oc1cccc(OCC(F)(F)F)c1)CCC2OP(=O)(N1CC1)N1CC1` (racemic) [Example 473], the values for the IC50 in test [1] and in test [2] were below 10 nM and 329 nM, respectively.

As for `CN1Cc2ccc(Oc3cc4c(cc3[N+](=O)[O-])OCCC4OP(=O)(N3CC3)N3CC3)cc2C1=O` (stereo not drawn) [Example 199, 6-((2-methyl-3-oxoisoindolin-5-yl)oxy)-7-nitrochroman-4-yl di(aziridin-1-yl)phosphinate], the IC50 in test [1] (Homo sapiens, NCI-H460, 72 h) is below 10 nM; in test [2] it was 416 nM.

With `O=[N+]([O-])c1cc2c(cc1Oc1ccc(-c3ccc(F)cn3)c(F)c1)C(OP(=O)(N1CC1)N1CC1)CC2` (stereo not drawn) [Example 142], the IC50 in test [1] (Homo sapiens, NCI-H460, 72 h) is below 10 nM; in test [2], 4130 nM.

Take `O=[N+]([O-])c1ccc2c(c1Oc1cccc(OC3CCCC3)c1)CC[C@@H]2OP(=O)(N1CC1)N1CC1` [Example 469]: the IC50 is below 10 nM in test [1] and 1130 nM in test [2].

As to `C[C@H](OP(=O)(N1CC1)N1CC1)c1cc2cc(Oc3cncc(-c4ccccc4)c3)c([N+](=O)[O-])cc2o1` [Example 568], the IC50 in test [1] is below 10 nM; in test [2] it was 1920 nM.

As to `O=C1c2cc(Oc3cc4c(cc3[N+](=O)[O-])CCC4OP(=O)(N3CC3)N3CC3)ccc2CN1C1CC1` (single isomer, unassigned) [Example 170], the concentration for half-maximal inhibition (IC50) in test [1] (Homo sapiens, NCI-H460, 72 h) was below 10 nM; in test [2], 801 nM.

Turning to `Cn1cc2ccc(Oc3c([N+](=O)[O-])ccc4c3CC[C@@H]4OP(=O)(N3CC3)N3CC3)cc2n1` [Example 399], the results for the IC50 in test [1] and in test [2] were below 10 nM and 1110 nM, respectively.

Consider `CN(C)C(=O)c1cccc(Oc2cc3c(cc2[N+](=O)[O-])CCC3OP(=O)(N2CC2)N2CC2)c1` (stereo not drawn) [Example 146], for which the IC50 is below 10 nM in test [1] (Homo sapiens, NCI-H460, 72 h) and 453 nM in test [2].

Consider `CC(OP(=O)(N1C[C@H]1C)N1C[C@H]1C)c1ccc([N+](=O)[O-])c(Oc2ccc(-c3ccc(F)cn3)c(F)c2)c1` (stereo partly drawn) [Example 222], for which the IC50 in test [1] (Homo sapiens, NCI-H460, 72 h) is 10 to 50 nM; in test [2], 3260 nM.

As for `O=C(c1cccc(Oc2c([N+](=O)[O-])ccc3c2CCC3OP(=O)(N2CC2)N2CC2)c1)N1CCC(F)(F)CC1` (stereo not drawn) [Example 103], the IC50 in test [1] (Homo sapiens, NCI-H460, 72 h) was below 10 nM; in test [2], 811 nM.

As for `CCOc1cc(Oc2c([N+](=O)[O-])ccc3c2CC[C@@H]3OP(=O)(N2CC2)N2CC2)ccc1F` [Example 493], the IC50 is below 10 nM in test [1] (Homo sapiens, NCI-H460, 72 h) and 341 nM in test [2].

As to `CC(OP(=O)(N1CC1)N1CC1)c1ccc([N+](=O)[O-])c(COc2ccc(C(=O)N(C)C)cn2)c1` (stereo not drawn) [Example 7], the IC50 was 10 to 50 nM in test [1] (Homo sapiens, NCI-H460, 72 h) and 3950 nM in test [2].

Consider `COc1ccc(Oc2c([N+](=O)[O-])ccc3c2CC[C@@H]3OP(=O)(N2CC2)N2CC2)cc1C1CC1` [Example 348], for which the IC50 in test [1] (Homo sapiens, NCI-H460, 72 h) was below 10 nM; in test [2] it was 827 nM.

As for `Cn1cncc1-c1cccc(Oc2c([N+](=O)[O-])ccc3c2CC[C@@H]3OP(=O)(N2CC2)N2CC2)c1` [Example 350], the IC50 in test [1] (Homo sapiens, NCI-H460, 72 h) is below 10 nM; in test [2], 1870 nM.

Consider `Cn1cc(-c2cc(Oc3c([N+](=O)[O-])ccc4c3CCC4OP(=O)(N3CC3)N3CC3)ccc2F)cn1` (stereo not drawn) [Example 330], for which the IC50 is below 10 nM in test [1] and 2980 nM in test [2].

The record behind these values is patent publication US20260167656A1, “PHOSPHORAMIDATE COMPOUNDS AND USES THEREOF” (ALLORION THERAPEUTICS INC, priority 2022, published 2026).
